Assay results: US4581354A, “3-arylcarbonyl- and 3-cycloalkylcarbonyl-1-aminoalkyl-1H-indoles, compositions and use” (Sterling Drug Inc., priority 1985, dated 1986)
Structures can show the parent of a compound that is named as a salt. Where two headings read alike, the source gives them in different places.

System: acetylcholine-induced abdominal constriction
Assay: animal or person
Format: in vivo, mice
Conditions: Mus musculus; for inhibition in vivo at 1000 mg/kg: 1000 mg./kg. oral; for ED50: read-out: Ach ED50; for inhibition in vivo at 300 mg/kg: 300 mg./kg. oral; for inhibition in vivo at 30 mg/kg: 30 mg./kg. oral; for inhibition in vivo at 550 mg/kg: 550 mg./kg. oral; for inhibition in vivo at 100 mg/kg: 100 mg./kg. oral
Description: The test procedures used to determine the analgesic activities of the compounds have been described in detail in the prior art and are as follows: The acetylcholine-induced abdominal constriction test, which is a primary analgesic screening test designed to measure the ability of a test agent to suppress acetylcholine-induced abdominal constriction in mice, described by Collier et al., Brit. J. Pharmacol. Chemotherap. 32, 295 (1968); a modification of the anti-bradykinin test, which is also a primary analgesic screening procedure, described by Berkowitz et al., J. Pharmacol. Exptl. Therap. 177, 500-508 (1971), Blane et al., J. Pharm. Pharmacol. 19, 367-373 (1967), Botha et al., Eur. J. Pharmacol. 6, 312-321 (1969) and Deffenu et al., J. Pharm. Pharmacol. 18, 135 (1966); and the rat paw flexion test, described by Kuzuna et al., Chem. Pharm. Bull., 23, 1184-1191 (1975), Winter et al., J. Pharm. Exptl. Therap., 211, 678-685 (1979) and Capetola et al., J. Pharm. Exptl. Therap. 214, 16-23 (1980).
Unless noted otherwise, all data were obtained on oral administration and are expressed either as the ED50 or as the percent inhibition at a given dose level (thus 30/100 or 30% inhibition at […].)
In some instances, the compounds were retested two or more times, and ED50 values were calculated for each series of repeat tests. In such instances, each of the ED50 values so-obtained is given in a series of values, thus 6, 28, 30, 43 in the case of the species of Example 1AW in the acetylcholine-induced abdominal constriction test.

[1] = po, read-out: Ach percent inhibition

Cc1c(C(=O)c2ccc(F)cc2)c2ccccc2n1CCN1CCOCC1 [Example 1Q, 3-(4-fluorobenzoyl)-2-methyl-1-[2-(4-morpholinyl)ethyl]-1H-indole]
inhibition in vivo at 24 mg/kg (po, 24 mg./kg. oral, read-out: Ach percent inhibition): 7% | inhibition in vivo at 79 mg/kg (po, 79 mg./kg. oral, read-out: Ach percent inhibition): 27% | inhibition in vivo at 238 mg/kg (po, 238 mg./kg. oral, read-out: Ach percent inhibition): 60% | inhibition in vivo at 435 mg/kg (po, 435 mg./kg. oral, read-out: Ach percent inhibition): 67% | inhibition in vivo at 793 mg/kg (po, 793 mg./kg. oral, read-out: Ach percent inhibition): 60% | inhibition in vivo at 1000 mg/kg [1]: 67%

Cc1c(C(=O)c2ccc3c(c2)OCO3)c2ccccc2n1CCN1CCOCC1 [Example 1R]
ED50 (po): 198 mg/kg

Cc1c(C(=O)c2csc3ccccc23)c2ccccc2n1CCN1CCOCC1 [Example 1T]
ED50 (iv): 3.8 mg/kg | ED50 (po): 106 mg/kg

COc1ccccc1C(=O)c1c(C)n(CCN2CCOCC2)c2ccccc12 [Example 1U, 2-methyl-3-(2-methoxybenzoyl)-1-[2-(4-morpholinyl)ethyl]-1H-indole]
ED50 (po): 155 mg/kg

COc1ccc(C(=O)c2c(C)n(CCN3CCOCC3)c3ccccc23)cc1F [Example 1V]
inhibition in vivo at 300 mg/kg [1]: 20%

Cc1c(C(=O)c2ccc3ccccc3c2)c2ccccc2n1CCN1CCOCC1 [Example 1W]
inhibition in vivo at 1 mg/kg (iv, 1 mg./kg. i.v., read-out: Ach percent inhibition): 10% | inhibition in vivo at 1.73 mg/kg (iv, 1.73 mg./kg. i.v., read-out: Ach percent inhibition): 0% | inhibition in vivo at 3 mg/kg (iv, 3 mg./kg. i.v., read-out: Ach percent inhibition): 86% | inhibition in vivo at 30 mg/kg [1]: 0% | inhibition in vivo at 300 mg/kg [1]: 40% | inhibition in vivo at 550 mg/kg [1]: 47%

COc1ccc(C(=O)c2cn(CCN3CCOCC3)c3ccc(C)cc23)cc1 [Example 1X]
inhibition in vivo at 300 mg/kg [1]: 7%

Cc1c(C(=O)c2cccc(F)c2)c2ccccc2n1CCN1CCOCC1 [Example 1Y]
inhibition in vivo at 100 mg/kg [1]: 30%

Cc1c(C(=O)c2ccccc2F)c2ccccc2n1CCN1CCOCC1 [Example 1Z, 3-(2-fluorobenzoyl)-2-methyl-1-[2-(4-morpholinyl)-ethyl]-1H-indole]
ED50 (po): 68 mg/kg

Cc1c(C(=O)c2ccc(S(C)(=O)=O)cc2)c2ccccc2n1CCN1CCOCC1 [Example 2-O]
inhibition in vivo at 100 mg/kg [1]: 20%

Cc1ccc(C(=O)c2cn(C(C)CN3CCOCC3)c3ccccc23)cc1 (stereo not shown) [Example 2A, 3-(4-methylbenzoyl)-1-[1-methyl-2-(4-morpholinyl)ethyl]-1H-indole]
inhibition in vivo at 30 mg/kg [1]: 7% | inhibition in vivo at 300 mg/kg [1]: 60% | inhibition in vivo at 550 mg/kg [1]: 73% | inhibition in vivo at 1000 mg/kg [1]: 67%

COc1ccc(C(=O)c2c(Cl)n(CCN3CCOCC3)c3ccccc23)cc1 [Example 2AB]
ED50 (po): 91 mg/kg

CCCc1ccc(C(=O)c2c(C)n(CCN3CCOCC3)c3ccccc23)cc1 [Example 2AC]
inhibition in vivo at 100 mg/kg [1]: 30%

Cc1ccccc1C(=O)c1c(C)n(CCCN2CCOCC2)c2ccc(F)cc12 [Example 2AD]
inhibition in vivo at 100 mg/kg [1]: 10%

Cc1c(C(=O)c2ccc(F)cc2)c2cc(F)ccc2n1CCCN1CCOCC1 [Example 2AE]
inhibition in vivo at 100 mg/kg [1]: 20%

Cc1c(C(=O)c2ccoc2)c2cc(F)ccc2n1CCCN1CCOCC1 [Example 2AF]
inhibition in vivo at 100 mg/kg [1]: 30%

Cc1c(C(=O)C=Cc2ccccc2)c2cc(F)ccc2n1CCCN1CCOCC1 [Example 2AG]
ED50 (po): 143 mg/kg

Cc1c(C(=O)c2ccc(F)cc2F)c2cc(F)ccc2n1CCN1CCOCC1 [Example 2AH]
inhibition in vivo at 100 mg/kg [1]: 20%

Cc1c(C(=O)c2cccc3ccccc23)c2ccccc2n1C(C)CN1CCOCC1 (stereo not shown) [Example 2AK]
inhibition in vivo at 0.3 mg/kg (iv, 0.3 mg./kg. i.v., read-out: Ach percent inhibition): 30%

O=C(c1cccc2ccccc12)c1cn(CCN2CCOCC2)c2ccccc12 [Example 2AL]
inhibition in vivo at 0.1 mg/kg (iv, 0.1 mg./kg. i.v., read-out: Ach percent inhibition): 20%

Cc1c(C(=O)c2ccc3occc3c2)c2ccccc2n1CCN1CCOCC1 [Example 2AM]
inhibition in vivo at 100 mg/kg [1]: 80%

Cc1c(C(=O)c2ccc(F)cc2F)c2ccccc2n1CCN1CCOCC1 [Example 2AN]
ED50 (po): 90 mg/kg

Cc1c(C(=O)c2ccc(F)cc2F)c2cc(F)ccc2n1CCCN1CCOCC1 [Example 2AO]
inhibition in vivo at 100 mg/kg [1]: 40%

COc1ccc(C(=O)c2c(C)n(CCN3CCOCC3)c3ccccc23)c(F)c1 [Example 2AP]
ED50 (po): 27 mg/kg

Cc1c(C(=O)c2ccc(Br)cc2)c2cc(F)ccc2n1CCCN1CCOCC1 [Example 2AR]
inhibition in vivo at 100 mg/kg [1]: 50%

Cc1cccc(C(=O)c2c(C)n(CCN3CCOCC3)c3ccccc23)c1C [Example 2AT]
inhibition in vivo at 100 mg/kg [1]: 20%

Cc1c(C(=O)c2cc(Cl)cc(Cl)c2)c2ccccc2n1CCN1CCOCC1 [Example 2AU]
inhibition in vivo at 100 mg/kg [1]: 30%

Cc1cc(C)cc(C(=O)c2c(C)n(CCN3CCOCC3)c3ccccc23)c1 [Example 2AV]
inhibition in vivo at 100 mg/kg [1]: 10%

Cc1cccc(C(=O)c2c(C)n(CCN3CCOCC3)c3ccccc23)c1 [Example 2AW]
inhibition in vivo at 100 mg/kg [1]: 20%

Cc1c(C(=O)c2cccc(Cl)c2)c2ccccc2n1CCN1CCOCC1 [Example 2AX]
inhibition in vivo at 100 mg/kg [1]: 0%

Cc1c(C(=O)c2ccccc2Cl)c2ccccc2n1C(C)CN1CCOCC1 (stereo not shown) [Example 2AZ]
ED50 (po): 26 mg/kg

Cc1c(C(=O)c2ccccc2F)c2cc(F)ccc2n1CCCN1CCOCC1 [Example 2BB, 5-fluoro-3-(2-fluorobenzoyl)-2-methyl-1-[3-(4-morpholinyl)propyl]-1H-indole]
inhibition in vivo at 100 mg/kg [1]: 40%

Cc1c(C(=O)c2ccoc2)c2ccccc2n1CCN1CCOCC1 [Example 2BC]
inhibition in vivo at 100 mg/kg [1]: 10%

Cc1c(C(=O)c2ccccc2F)c2cc(F)ccc2n1C(C)CN1CCOCC1 (stereo not shown) [Example 2BD]
ED50 (po): 15 mg/kg

Cc1c(C(=O)c2ccc(Br)cc2)c2ccccc2n1CCN1CCOCC1 [Example 2BE]
inhibition in vivo at 100 mg/kg [1]: 30%

Cc1c(C(=O)c2ccc3[nH]cnc3c2)c2ccccc2n1CCN1CCOCC1 [Example 2BF]
inhibition in vivo at 100 mg/kg [1]: 30%

Cc1ccc(C(=O)c2c(C)n(C(C)CN3CCOCC3)c3ccccc23)cc1 (stereo not shown) [Example 2B]
inhibition in vivo at 300 mg/kg [1]: 47% | inhibition in vivo at 550 mg/kg [1]: 33%

CC(CN1CCOCC1)n1cc(C(=O)c2ccc(F)cc2)c2ccccc21 (stereo not shown) [Example 2D]
inhibition in vivo at 100 mg/kg [1]: 20% | inhibition in vivo at 300 mg/kg [1]: 40% | inhibition in vivo at 1000 mg/kg [1]: 67%

CC(CN1CCOCC1)n1cc(C(=O)c2ccccc2F)c2ccccc21 (stereo not shown) [Example 2E]
ED50 (po): 33 mg/kg

CC(CN1CCOCC1)n1cc(C(=O)c2cccn2C)c2ccccc21 (stereo not shown) [Example 2F]
inhibition in vivo at 30 mg/kg [1]: 20% | inhibition in vivo at 100 mg/kg [1]: 40% | inhibition in vivo at 300 mg/kg [1]: 33%

Cc1c(C(=O)c2ccc(F)cc2)c2ccccc2n1C(C)CN1CCOCC1 (stereo not shown) [Example 2G]
ED50 (po): 42 mg/kg

Cc1c(C(=O)c2cccn2C)c2ccccc2n1C(C)CN1CCOCC1 (stereo not shown) [Example 2H]
ED50 (po): 49 mg/kg

Cc1cccc2c(C(=O)c3ccccc3)cn(C(C)CN3CCOCC3)c12 (stereo not shown) [Example 2J]
ED50 (po): 60 mg/kg

Cc1c(C(=O)c2ccccc2C#N)c2ccccc2n1CCN1CCOCC1 [Example 2L]
inhibition in vivo at 100 mg/kg [1]: 10%

Cc1c(C(=O)c2cccc(C#N)c2)c2ccccc2n1CCN1CCOCC1 [Example 2M]
inhibition in vivo at 100 mg/kg [1]: 20%

Cc1c(C(=O)c2ccn(C)c2)c2ccccc2n1CCN1CCOCC1 [Example 2N]
inhibition in vivo at 100 mg/kg [1]: 20%

Cc1c(C(=O)c2ccsc2)c2ccccc2n1CCN1CCOCC1 [Example 2P]
inhibition in vivo at 100 mg/kg [1]: 30%

Cc1c(C(=O)C2CCCCC2)c2ccccc2n1CCN1CCOCC1 [Example 2Q]
inhibition in vivo at 100 mg/kg [1]: 20%

Cc1c(C(=O)c2ccc(C(C)(C)C)cc2)c2ccccc2n1CCN1CCOCC1 [Example 2R]
inhibition in vivo at 100 mg/kg [1]: 10%

Cc1c(C(=O)c2cc3ccccc3s2)c2ccccc2n1CCN1CCOCC1 [Example 2S]
inhibition in vivo at 100 mg/kg [1]: 0%

Cc1c(C(=O)c2cccn2C)c2ccccc2n1CCN1CCOCC1 [Example 2T]
inhibition in vivo at 100 mg/kg [1]: 30%

Cc1ccccc1C(=O)c1c(C)n(CCN2CCOCC2)c2ccccc12 [Example 2U]
ED50 (po): 88 mg/kg

Cc1ccc(C(=O)c2c(C)n(CCN3CCOCC3)c3ccccc23)cc1C [Example 2V]
inhibition in vivo at 100 mg/kg [1]: 20%

Cc1c(C(=O)C=Cc2ccccc2)c2ccccc2n1CCN1CCOCC1 [Example 2W]
ED50 (po): 72 mg/kg

COc1ccc(C(=O)c2c(C)n(CCN(C)CCO)c3ccccc23)cc1 [Example 3-O]
ED50 (po): 76 mg/kg

COc1ccc(C(=O)c2c(C)n(CCN3CCC(O)CC3)c3ccccc23)cc1 [Example 3A, 2-methyl-3-(4-methoxybenzoyl)-1-[2-(4-hydroxy-1-piperidinyl)ethyl]-1H-indole hydrochloride hemihydrate]
ED50 (po): 68.1 mg/kg

COc1ccc(C(=O)c2c(C)n(CCCCN3CCOCC3)c3ccccc23)cc1 [Example 3AA]
ED50 (po): 22 mg/kg
